This is an account of results in ChEMBL document CHEMBL1143951, “Synthesis and cytotoxicity evaluation of 22,23-oxygenated stigmastane derivatives” (Bioorg Med Chem, 2008).

In one test the test system is HepG2. In words: Cytotoxicity against human HepG2 cells after 48 hrs by MTT assay. The class given is functional, cell-based.
A further test relates to MCF7. In words: Cytotoxicity against human MCF7 cells after 48 hrs by MTT assay. The class given is functional, cell-based.

As for `CCC(C(C)C)[C@H]1O[C@@H]1[C@@H](C)[C@H]1CC[C@H]2[C@@H]3[C@H](O)C=C4C[C@@H](O)CC[C@]4(C)[C@H]3CC[C@]12C` (stereo partly specified), the Activity result with HepG2 and in the test on MCF7 was “Toxic” throughout.
Consider `CCC(C(C)C)[C@@H](O)[C@H](O)[C@@H](C)[C@H]1CC[C@H]2[C@@H]3C(=O)C=C4C[C@@H](O)CC[C@]4(C)[C@H]3CC[C@]12C` (stereo partly specified), for which the Activity result in the test with HepG2 and with MCF7 was “Toxic” each time.
For the compound `CC[C@@H](C(C)C)[C@@H](O)[C@H](O)[C@@H](C)[C@H]1CC[C@H]2[C@@H]3CCC4=CC(=O)CC[C@]4(C)[C@H]3CC[C@]12C`, the Activity entry in the test with MCF7 is “Toxic”.
For the compound `CCC(C(C)C)[C@@H](O)[C@H](O)[C@@H](C)[C@H]1CC[C@H]2[C@@H]3C[C@@H]4O[C@@]45C[C@@H](O)CC[C@]5(C)[C@H]3CC[C@]12C` (stereo partly specified), in the test with MCF7, the Activity entry is “Toxic”.
On to `CCC(C(C)C)[C@@H](O)[C@H](O)[C@@H](C)[C@H]1CC[C@H]2[C@@H]3CC=C4C[C@@H](O)CC[C@]4(C)[C@H]3CC[C@]12C` (stereo partly specified), for which the Activity entry with HepG2 and with MCF7 was “Toxic” in each case.
As to `CC[C@@H](C(C)C)[C@@H](O)[C@H](O)[C@@H](C)[C@H]1CC[C@H]2[C@@H]3CC(=O)C4=CC(=O)CC[C@]4(C)[C@H]3CC[C@]12C`, the Activity result in the test with MCF7 was “Toxic”.
Consider `CCC(C(C)C)[C@@H](O)[C@H](O)[C@@H](C)[C@H]1CC[C@H]2[C@@H]3C[C@@H](O)[C@@]4(O)C[C@@H](O)CC[C@]4(C)[C@H]3CC[C@]12C` (stereo partly specified), for which the Activity entry with HepG2 and in the test with MCF7 was “Toxic” each time.
